The text below walks through data of ChEMBL document CHEMBL1201862, “PubChem BioAssay data set” (2004).

Some test systems named below: TK-10; T47D; OVCAR-4; SK-MEL-2; CAKI-1; NCI-H23; SR; LOX IMVI; EKVX; SNB-19; SK-OV-3; HT-29; DU-145; UACC-257; A549; M14; HOP-62; OVCAR-5; SN12C; OVCAR-8.
Assay in all cases: inhibition of tumour cell growth, NCI panel, 48 h

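Compound exposure: 48 hours, 5 concentrations, 96-well plates. The concentration for 50% growth inhibition is given as GI50.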 Calls of active or inactive are those of the source. Rule as the data show it: active = GI50 up to about 1.1 µM and inactive = higher.

As to `OCCc1ccsc1-c1sc(-c2cc(CCO)c(-c3sc(-c4cc(CCO)c(-c5sccc5CCO)s4)cc3CCO)s2)cc1CCO`, the GI50 in the assay with TK-10 was 1.55 µM (inactive); with T47D, 1.3 µM (inactive); in the assay with OVCAR-4, 1.16 µM (inactive); with SK-MEL-2 it was 1.68 µM (inactive); in the assay on CAKI-1, 1.48 µM (inactive); in the assay on NCI-H23, 0.853 µM (active). The GI50 in the assay on SR was 0.684 µM (active); in the assay with LOX IMVI, 0.617 µM (active); with EKVX it was 1.26 µM (inactive); with SNB-19, 1.7 µM (inactive); in the assay on SK-OV-3, 1.64 µM (inactive); in the assay with HT-29, 1.77 µM (inactive). Also, the GI50 in the assay on DU-145 is 1.34 µM (inactive); in the assay with UACC-257, 1.13 µM (inactive); in the assay with A549, 0.656 µM (active); with M14, 1.82 µM (inactive); in the assay on HOP-62, 1.38 µM (inactive); in the assay with OVCAR-5, 1.38 µM (inactive). Besides, the GI50 with SN12C was 1.85 µM (inactive); with OVCAR-8, 1.55 µM (inactive).

As for `Cn1c(=O)cc(NNc2ccc(Cl)c(Cl)c2)[nH]c1=O`, the GI50 is 16.7 µM (inactive) with TK-10; 4.99 µM (inactive) in the assay on T47D; 10.7 µM (inactive) in the assay with OVCAR-4; 16.4 µM (inactive) in the assay on SK-MEL-2; 14.1 µM (inactive) with CAKI-1; 29.2 µM (inactive) in the assay with NCI-H23. The GI50 in the assay with SR is > 100 µM (inactive); in the assay on LOX IMVI it was 12.2 µM (inactive); in the assay with EKVX, 10 µM (inactive); with SNB-19, 32.1 µM (inactive); in the assay on SK-OV-3 it was 20.8 µM (inactive); in the assay on HT-29, 18 µM (inactive). Moreover, the GI50 was 17.5 µM (inactive) in the assay with DU-145; 14.9 µM (inactive) in the assay with UACC-257; 16.2 µM (inactive) in the assay with A549; 5.25 µM (inactive) in the assay with M14; 16.4 µM (inactive) with HOP-62; 14.4 µM (inactive) with OVCAR-5. In addition, the GI50 with SN12C was 4.34 µM (inactive); in the assay on OVCAR-8, 13.6 µM (inactive).

As to `O=C(Nc1ccccc1)N(C1=NCC(CI)S1)c1ccc(F)cc1F` (stereo not given), the GI50 with TK-10 is 82.8 µM (inactive); with T47D it was 15.3 µM (inactive); in the assay on OVCAR-4, 43.6 µM (inactive); with SK-MEL-2 it was > 100 µM (inactive); in the assay on CAKI-1 it was 25.4 µM (inactive); in the assay on NCI-H23 it was 50.6 µM (inactive). The GI50 was 12.2 µM (inactive) in the assay on SR; 16 µM (inactive) in the assay on LOX IMVI; > 100 µM (inactive) with EKVX; > 100 µM (inactive) in the assay on SNB-19; > 100 µM (inactive) with SK-OV-3; 29.2 µM (inactive) with HT-29. The GI50 with DU-145 is > 100 µM (inactive); in the assay with UACC-257, 23.2 µM (inactive); with A549, > 100 µM (inactive); in the assay with M14, 79.1 µM (inactive); in the assay with HOP-62, > 100 µM (inactive); with OVCAR-5, > 100 µM (inactive). Moreover, the GI50 in the assay with SN12C is 46.7 µM (inactive); in the assay on OVCAR-8 it was > 100 µM (inactive).

Turning to `Cc1nn(-c2ccccc2)c(C)c1/C=N/NC(=O)c1sc(=S)n(-c2ccccc2)c1N`, the GI50 with TK-10 is 1.63 µM (inactive); in the assay on T47D, 4.2 µM (inactive); with OVCAR-4 it was 2.69 µM (inactive); in the assay with SK-MEL-2, 29 µM (inactive); with CAKI-1, 1.56 µM (inactive); with NCI-H23, 6.81 µM (inactive). Further, the GI50 in the assay with SR was 3.94 µM (inactive); in the assay on LOX IMVI, 2.09 µM (inactive); in the assay on EKVX it was 3.39 µM (inactive); in the assay with SNB-19 it was 30.8 µM (inactive); in the assay on SK-OV-3, 1.45 µM (inactive); in the assay with HT-29, 2.69 µM (inactive). The GI50 is 9.66 µM (inactive) in the assay with DU-145; 4.9 µM (inactive) with UACC-257; 3.9 µM (inactive) in the assay on A549; 4.92 µM (inactive) in the assay on M14; 9.84 µM (inactive) in the assay with HOP-62; 5.52 µM (inactive) in the assay on OVCAR-5. The GI50 with SN12C is 6.28 µM (inactive); in the assay on OVCAR-8, 4.69 µM (inactive).

As to `Cc1noc2nnn(-c3ccc(Cl)cc3)c(=O)c12`, the GI50 in the assay on TK-10 was 9.06 µM (inactive); in the assay with T47D, 0.614 µM (active); in the assay with OVCAR-4 it was 3.18 µM (inactive); in the assay with SK-MEL-2 it was 3.24 µM (inactive); with CAKI-1 it was 2.05 µM (inactive); in the assay with NCI-H23, 4.75 µM (inactive). The GI50 in the assay on SR was 1.21 µM (inactive); in the assay on LOX IMVI, 2.5 µM (inactive); in the assay with EKVX, 7.11 µM (inactive); with SNB-19 it was 13.3 µM (inactive); in the assay with SK-OV-3 it was 5.52 µM (inactive); in the assay with HT-29, 4.42 µM (inactive). The GI50 in the assay on DU-145 is 3.72 µM (inactive); in the assay on UACC-257, 7.5 µM (inactive); in the assay on A549 it was 12.1 µM (inactive); in the assay with M14, 11.8 µM (inactive); in the assay with HOP-62 it was 12.8 µM (inactive); with OVCAR-5 it was 7.23 µM (inactive). Also, the GI50 in the assay with SN12C was 3.89 µM (inactive); with OVCAR-8, 2.69 µM (inactive).

Regarding `C=C1C(=O)OC2/C=C(/C)C3(O)OC(C)(CC(OC(=O)C(C)C)C12)CC3OC(C)=O` (stereo not given), the GI50 in the assay on TK-10 is 5.82 µM (inactive); in the assay with T47D it was 13 µM (inactive); with OVCAR-4, 13.2 µM (inactive); in the assay on SK-MEL-2, 12 µM (inactive); in the assay on CAKI-1, 2.48 µM (inactive); in the assay with NCI-H23, 3.34 µM (inactive). Besides, the GI50 is 2.52 µM (inactive) in the assay with SR; 8.87 µM (inactive) with LOX IMVI; 10.6 µM (inactive) with EKVX; 15.3 µM (inactive) in the assay with SNB-19; 7.59 µM (inactive) with SK-OV-3; 4.55 µM (inactive) in the assay on HT-29. Besides, the GI50 with DU-145 is 8.26 µM (inactive); in the assay on UACC-257 it was 16.4 µM (inactive); with A549 it was 10.8 µM (inactive); in the assay with M14 it was 6.92 µM (inactive); in the assay with HOP-62, 30.4 µM (inactive); in the assay on OVCAR-5, 12.9 µM (inactive). Also, the figures for the GI50 in the assay with SN12C and in the assay with OVCAR-8 were 4.9 µM (inactive) and 3.27 µM (inactive), respectively.

With `O/N=C1/COC(C(F)(F)F)(C(F)(F)F)C1`, the GI50 with TK-10, in the assay on T47D, with OVCAR-4, in the assay with SK-MEL-2, in the assay with CAKI-1 and in the assay on NCI-H23 was > 100 µM (inactive) throughout. Also, the GI50 in the assay with SR was 0.0573 µM (active); in the assay with LOX IMVI, > 100 µM (inactive); with EKVX, > 100 µM (inactive); in the assay with SNB-19 it was > 100 µM (inactive); in the assay on SK-OV-3 it was > 100 µM (inactive); in the assay on HT-29 it was > 100 µM (inactive). The GI50 in the assay on DU-145, in the assay with UACC-257, with A549, in the assay on M14, in the assay on HOP-62 and with OVCAR-5 was > 100 µM (inactive) throughout. In addition, the GI50 in the assay on SN12C and in the assay on OVCAR-8 was > 100 µM (inactive) in each case.

In the case of `O=[N+]([O-])c1ccc(/C(=C\c2ccccc2)Cn2ccnc2)cc1`, the GI50 in the assay on TK-10 was 32.7 µM (inactive); in the assay with T47D, 34.8 µM (inactive); with OVCAR-4 it was 40.5 µM (inactive); in the assay on SK-MEL-2, 22.9 µM (inactive); in the assay with CAKI-1, 3.77 µM (inactive); in the assay on NCI-H23, 26.5 µM (inactive). For the same compound, the GI50 is 38.1 µM (inactive) in the assay with SR; 17.3 µM (inactive) with LOX IMVI; 43.9 µM (inactive) in the assay on EKVX; 57.9 µM (inactive) with SNB-19; 38.4 µM (inactive) with SK-OV-3; 14 µM (inactive) with HT-29. The GI50 with DU-145 was 60 µM (inactive); with UACC-257 it was 37.6 µM (inactive); in the assay on A549, 39.3 µM (inactive); in the assay with M14, 36.9 µM (inactive); with HOP-62 it was 54.1 µM (inactive); in the assay on OVCAR-5, 61.5 µM (inactive). Further, the GI50 was 35 µM (inactive) in the assay on SN12C and 35.9 µM (inactive) in the assay on OVCAR-8.

As for `COc1cc(CCNC2=CC(=O)c3ncccc3C2=O)ccc1O`, the GI50 is 26.9 µM (inactive) in the assay with TK-10; 21.8 µM (inactive) in the assay with T47D; 4.79 µM (inactive) in the assay with OVCAR-4; 2.53 µM (inactive) in the assay with SK-MEL-2; 3.94 µM (inactive) in the assay on CAKI-1; 0.828 µM (active) in the assay with NCI-H23. In addition, the GI50 is 3.48 µM (inactive) in the assay on SR; 0.65 µM (active) with LOX IMVI; 8.85 µM (inactive) in the assay on EKVX; 3.48 µM (inactive) in the assay on SNB-19; 12.6 µM (inactive) in the assay on SK-OV-3; 4.2 µM (inactive) in the assay on HT-29. For the same compound, the GI50 in the assay on DU-145 is 3.6 µM (inactive); in the assay on UACC-257, 1.9 µM (inactive); in the assay with A549 it was 2.1 µM (inactive); in the assay with M14, 1.71 µM (inactive); in the assay with HOP-62, 2.39 µM (inactive); in the assay with OVCAR-5, 8.91 µM (inactive). Moreover, the GI50 in the assay with SN12C is 1.97 µM (inactive); in the assay on OVCAR-8, 2.41 µM (inactive).

Turning to `OCCCN(CCc1ccc(Cl)c(Cl)c1)CCN1CCCC1`, the GI50 with TK-10 is 40.6 µM (inactive); in the assay on T47D, 33.1 µM (inactive); in the assay with OVCAR-4, > 100 µM (inactive); with SK-MEL-2, 18.9 µM (inactive); with CAKI-1, > 100 µM (inactive); with NCI-H23, 69.8 µM (inactive). For the same compound, the GI50 in the assay with SR was 31.8 µM (inactive); with LOX IMVI it was 35.9 µM (inactive); in the assay on EKVX, > 100 µM (inactive); in the assay on SNB-19 it was 68.4 µM (inactive); with SK-OV-3, > 100 µM (inactive); in the assay on HT-29 it was 24.7 µM (inactive). In addition, the GI50 was > 100 µM (inactive) in the assay with DU-145; 19.3 µM (inactive) with UACC-257; 58.2 µM (inactive) with A549; 17.4 µM (inactive) with M14; > 100 µM (inactive) with HOP-62; 31.4 µM (inactive) in the assay on OVCAR-5. Also, the values for the GI50 in the assay with SN12C and in the assay on OVCAR-8 were 73.3 µM (inactive) and > 100 µM (inactive), respectively.
